Assay results taken from PubChem BioAssay (NCI).
Where “and” joins values, the source holds several entries; their conditions need not be identical. Identical values can stand only once.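 Exposure lasted 48 hours, with cells grown in 96-well plates and compounds tested at five concentrations. GI50 = concentration required for 50% inhibition of growth. TGI: total growth inhibition.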

Experiments:
Experiment in all cases: growth of human tumour cells (NCI), 48 h
MDA-MB-231 breast = test system: MDA-MB-231 breast
DU-145 prostate = test system: DU-145 prostate
BT-549 breast = test system: BT-549 breast
M19-MEL melanoma = test system: M19-MEL melanoma
HOP-18 NSCLC = test system: HOP-18 NSCLC
LXFL 529 NSCLC = test system: LXFL 529 NSCLC
KM20L2 colon = test system: KM20L2 colon
SNB-78 CNS = test system: SNB-78 CNS

Structure (SMILES)	GI50 (MDA-MB-231 breast)	TGI (MDA-MB-231 breast)	GI50 (DU-145 prostate)	TGI (DU-145 prostate)	GI50 (BT-549 breast)	TGI (BT-549 breast)	TGI (M19-MEL melanoma)	TGI (HOP-18 NSCLC)	TGI (LXFL 529 NSCLC)	TGI (KM20L2 colon)	TGI (SNB-78 CNS)
NC(=O)c1ccc(I)c([N+](=O)[O-])c1	49.5 µM	> 100 µM	> 95.3 µM	> 100 µM	> 100 µM	> 100 µM	–	–	–	–	–
Cc1cccc2c(=O)c3c(sc12)c(NCCCN)nc1ccccc13	1.52 µM	3.03 µM	1.39 µM	2.78 µM	2.6 µM	12.6 µM	–	–	–	–	–
NCCCNCc1c2ccccc2c(CNCCCN)c2ccccc12	–	–	–	–	–	–	35.4 µM	75 µM	24.5 µM	53.4 µM	60.1 µM
Oc1cccc2ccc(SSc3ccc4cccc(O)c4n3)nc12	–	32.3 µM	–	> 100 µM	–	37.6 µM	–	–	–	–	–
COc1cc(/C=C/C(=O)c2ccccc2O)ccc1OCCCOc1cc2c(cc1OC)C(=O)N1CCC[C@H]1C=N2	0.0564 µM	0.335 µM	0.0351 µM	0.452 µM	0.0179 µM	0.0476 µM	–	–	–	–	–
COC(=O)[C@@H](C)C[C@H](Cc1ccc(F)cc1)NC(=O)c1csc([C@@H](C[C@H](C(C)C)N(C)C(=O)[C@@H](NC(=O)[C@H]2CCCCN2C)C2CC2)OC(C)=O)n1	0.315 µM	1.65 µM	0.238 µM	> 9.05 µM	0.188 µM	3.72 µM	–	–	–	–	–
O=C1NN(C(=O)c2ccccc2)C(c2ccc(Cl)c(Cl)c2)=C/C1=C\c1ccccc1[N+](=O)[O-]	> 6.75 µM	> 6.75 µM	2.78 µM	> 6.75 µM	1.18 µM	5.4 µM	–	–	–	–	–
CCCCNC(=O)Oc1ccc(/C(=C(\C)c2ccc(OC)cc2)c2ccc(OCCN3CCCCC3)cc2)cc1	2.08 µM	3.83 µM	6.5 µM	21.4 µM	1.48 µM	2.89 µM	–	–	–	–	–
CCC(CO)Nc1nc(NCc2ccccc2)c2n[nH]c(C(C)C)c2n1 (centres undefined)	15.8 µM	35.3 µM	3.73 µM	16.6 µM	10.7 µM	23.7 µM	–	–	–	–	–
C/C(=N\NC(=O)c1ccccc1O)c1c(O)cc(C)oc1=O	–	–	–	–	–	–	> 100 µM	> 100 µM	> 100 µM	> 100 µM	> 100 µM
C/C(=N\N)C(CN1CCOCC1)C(c1ccccc1)c1c(O)c2ccccc2oc1=O (centres undefined)	–	> 100 µM	–	> 100 µM	–	> 100 µM	> 100 µM	–	> 100 µM	> 100 µM	> 100 µM
C/C(COc1ccc2oc(-c3ccccc3)cc(=O)c2c1)=N\O	14.1 µM	36.4 µM	48.5 µM	> 100 µM	–	–	–	–	–	–	–
Cc1ccc(S(=O)(=O)NC(Cc2ccccc2)C(=O)CCl)cc1 (centres undefined)	–	27.3 µM	–	31.6 µM	–	23.9 µM	–	–	–	–	–
O=C1CC=C2C3CC4N(CCC45c4ccccc4N1C25)C/C3=C\CO (centres undefined)	–	> 100 µM	–	> 100 µM	–	> 100 µM	–	–	–	–	–
O=c1cc(-c2ccccc2)oc2c(O)c(O)ccc12	23.2 µM	> 100 µM	8.66 µM	> 100 µM	8.36 µM	42.3 µM	–	–	–	–	–
N[C@@H](Cc1c[nH]c2ccccc12)C(=O)NC1CCN(Cc2c[nH]c3ccc(Cl)cc23)CC1	2.32 µM	6 µM	8.76 µM	21.2 µM	16 µM	34.4 µM	–	–	–	–	–
COc1ccc2c(c1)/C(=C\c1c(-c3ccccc3)nc3sccn13)C(=O)N2	6.92 µM	23.5 µM	3.01 µM	12.6 µM	3 µM	13.9 µM	–	–	–	–	–
C=C(C)[C@@H]1C/C=C(/COC(C)=O)CC[C@H]2O[C@@]2(C)CC/C=C(\C)CC1	–	–	> 100 µM	> 100 µM	–	–	–	–	–	–	–
C=C[C@@H]1CCC/C=C/[C@@H]2C[C@H](O)C[C@H]2[C@H](O)/C=C/C(=O)O1	0.379 µM	1.11 µM	3.82 µM	> 100 µM	0.543 µM	> 37.1 µM	–	–	–	–	–
O=C(Nc1ccc(Cl)cc1)c1cc(NCc2cc(O)ccc2O)ccc1O	3.49 µM	13.6 µM	13.2 µM	26.9 µM	1.42 µM	3.57 µM	–	–	–	–	–
COc1ccc(-c2oc3ncnc(N)c3c2-c2ccc(NC(=O)Nc3cc(C(F)(F)F)ccc3F)cc2)cc1	1.1 µM	6.17 µM	1.14 µM	4.16 µM	1.82 µM	5.08 µM	–	–	–	–	–
NC1=C(O)/C(=N/NS(=O)(=O)c2ccccc2)C(c2ccc3c(c2)OCO3)O1 (centres undefined)	–	–	–	–	–	–	83.4 µM	> 100 µM	> 100 µM	> 100 µM	> 100 µM

Structure (SMILES)	GI50 (MDA-MB-231 breast)	TGI (MDA-MB-231 breast)	GI50 (DU-145 prostate)	TGI (DU-145 prostate)	GI50 (BT-549 breast)	TGI (BT-549 breast)	TGI (M19-MEL melanoma)	TGI (HOP-18 NSCLC)	TGI (LXFL 529 NSCLC)	TGI (KM20L2 colon)	TGI (SNB-78 CNS)
CC1(C)N=C(N)N=C(N)N1c1cccc(CCCCc2ccc(Cl)c(S(=O)(=O)F)c2)c1	11 µM	25.8 µM	4.09 µM	17.1 µM	1.35 µM	17.7 µM	–	–	–	–	–
CCCC(=O)Oc1ccc(/C=N/NC(N)=S)nc1	–	–	–	–	–	–	> 100 µM	> 100 µM	> 100 µM	> 100 µM	> 100 µM
CC(=O)N(N=O)c1ccc(N(N=O)C(C)=O)cc1	–	–	–	–	–	–	> 100 µM	–	> 100 µM	> 100 µM	> 100 µM
COc1ccc(Cc2ccc3[nH]c(=O)cc(C)c3c2)cc1S(=O)(=O)O	–	> 100 µM	–	> 100 µM	–	> 100 µM	–	–	–	–	–
Cc1cc(C)c([I+]c2c(C)cc(C)cc2C)c(C)c1	0.371 µM	1.38 µM	0.622 µM	2.02 µM	0.466 µM	1.59 µM	–	–	–	–	–
CO[C@H]1/C=C/O[C@@]2(C)Oc3c(C)c(O)c4c(O)c(c(/C=N/N5C(C)CN(Cc6ccc(C#N)cc6)CC5C)c(O)c4c3C2=O)NC(=O)/C(C)=C\C=C\[C@H](C)[C@H](O)[C@@H](C)[C@@H](O)[C@@H](C)[C@H](OC(C)=O)[C@@H]1C (some centres undefined)	7.49 µM	14.9 µM	8.16 µM	15.3 µM	8.85 µM	23.5 µM	–	–	–	–	–
COc1cc(OCCCN2CCCC2)ccc1Nc1ncc(Cl)c(Nc2ccccc2P(C)(C)=O)n1	1.56 µM	11.7 µM	1.91 µM	36.4 µM	3.86 µM	11.7 µM	–	–	–	–	–
Oc1ccc(Br)cc1C=NC1CCCCC1	–	> 100 µM	–	> 100 µM	–	> 100 µM	–	–	–	–	–
OCC#Cc1ccccc1C#Cc1ccc(C#Cc2ccccc2C#CCO)cc1	25.5 µM	58.1 µM	27.3 µM	91.3 µM	0.68 µM	32.2 µM	–	–	–	–	–
[Mn+3].[O-][Cl+3]([O-])([O-])O.[O-]c1ccccc1C=NCCN1CC1.[O-]c1ccccc1C=NCCN1CC1	20.9 µM	> 100 µM	22.7 µM	> 100 µM	19.4 µM	50.8 µM	–	–	–	–	–
COc1ccc(NC(=O)c2ccc(C(F)(F)F)nc2Nc2ccc(Cl)cc2C)cc1Cl	1.64 µM	6.82 µM	3.75 µM	14.2 µM	4.88 µM	18.6 µM	–	–	–	–	–
CCOc1ccc(Nc2ccnc3cc(Cl)ccc23)cc1	> 100 µM	> 100 µM	> 100 µM	> 100 µM	> 100 µM	> 100 µM	–	–	–	–	–
CCCCCCCCCCCCCCCCCC1=NC(C)(C)CN1C(C)(C)CO	1.29 µM	3.16 µM	1.61 µM	3.03 µM	3.28 µM	14 µM	–	–	–	–	–
O=C1/C(=C/c2ccc(Cl)cc2)N=C(c2ccccc2)N1c1cc(C(F)(F)F)ccc1Cl	16 µM	55.8 µM	31.2 µM	> 100 µM	–	–	–	–	–	–	–
COc1ccc2cc(C(=O)N3CCC([C@@H](C)C(=O)NCc4ccc5c(c4)OCO5)CC3)[nH]c2c1	> 100 µM	> 100 µM	> 100 µM	> 100 µM	43.7 µM	> 100 µM	–	–	–	–	–
COc1nc2c(c(=O)n1C)CN(c1ccccc1)C(=O)CN2C	41.7 µM	> 100 µM	61.1 µM	> 100 µM	33.2 µM	> 100 µM	–	–	–	–	–
COC(=O)[C@@H](C)C[C@H](Cc1ccccc1)NC(=O)c1csc([C@@H](C[C@H](C(C)C)N(C)C(=O)[C@@H](NC(=O)[C@H]2CCCCN2C)c2ccc(F)cc2)OC(C)=O)n1	–	–	–	–	–	0.0853 µM and 0.661 µM	–	–	–	–	–
CC(C)(C)c1cc[n+](C[n+]2ccc(C(C)(C)C)cc2)cc1	–	> 100 µM	–	> 100 µM	–	–	–	–	–	–	–
COc1ccc2c(c1)C(=O)/C(=C/c1ccc(O)cc1)O2	14.2 µM	28.8 µM	9.45 µM	21.9 µM	12.7 µM	29.8 µM	–	–	–	–	–
C[C@]1(c2nc3c(C(N)=O)cccc3[nH]2)CCCN1	98.3 µM and > 100 µM	> 100 µM	74 µM and > 100 µM	> 100 µM	> 100 µM	> 100 µM	–	–	–	–	–
COc1cc(/C=C2\C[C@H]3[C@@H]4CC=C5C[C@@H](O)CC[C@]5(C)[C@H]4CC[C@]3(C)[C@H]2O)ccc1OCCN1CCCCC1	0.605 µM	1.39 µM	1.61 µM	4.58 µM	1.18 µM	2.49 µM	–	–	–	–	–
CN1CCN(c2ccncc2S(=O)(=O)N2CCN(C)CC2)CC1	–	> 100 µM	–	> 100 µM	–	> 100 µM	–	–	–	–	–
